Measurements from patent US20010031282A1, “Process for the manufacture of a pulverous preparation” (ROCHE VITAMINS INC., priority 1996, published 2001).
Where two headings read alike, the source gives them in different places.

Experiments:
[1] = Solubility of pharmaceuticals in carbon dioxide (Example 7); assay type: physicochemical
Protocol: (§1) A comparison of solubility's of a number of pharmaceuticals was performed in the following way:
(§2) Approximately 3-5 g of the pharmaceutical was slightly compressed in an uniaxial press to avoid the formation of a stable suspension. The so compressed powder was given in a pressure chamber with a sapphire glass (30 ml volume). The temperature of the pressure chamber was controlled by water bath. Then the pressure in the chamber was increased using the corresponding gas and equilibrated for 1-3 hours. After equilibration a defined sample (1.0 ml) was drawn under constant pressure and temperature conditions using a high pressure line with a defined volume. […] The sample container was afterwards rinsed with the same liquid to collect the residues of the substance in the sample container.
(§3) The solubility (G/V) was determined either by HPLC or gravimetrically after removing the liquid.

[2] = Solubility of pharmaceuticals in dimethylether (Example 7); assay type: physicochemical
Protocol: as §1, §2, §3

[3] = Protocol: 250 g of solid trans-apoester (Ethyl-8′-apo-β-carotene-8′oate) were charged into an autoclave. The autoclave was adjusted to a temperature of 67° C. […] 1003 g of the solution was sprayed into a spray-tower via a nozzle having a bore hole of 0.2 mm. The flow rate was 84 g/min. During the spray procedure the pressure in the autoclave was maintained at 150×10^5 Pa by supplementation with fresh dimethyl ether. The sample composition was determined gravimetrically.
[4] = Volume weighted particle size distribution after spraying (Examples 8, 9); assay type: physicochemical; details: dissolved at 40° C., 200×10^5 Pa, sprayed into second autoclave
Protocol: 100 g of solid Orlistat in a container with two sinter plates was charged into an autoclave having a volume of 6 l. The autoclave was kept at a temperature of 40° C. with a water bath. Then the autoclave was filled with gas up to a pressure of 200×10^5 Pa and equilibrated for 90 min. The autoclave was connected to a second autoclave via a heated high pressure line, kept at 40° C. This second autoclave has a volume of 4 l. The dissolved Orlistat was sprayed into this second autoclave. Thereby the pressure of the first autoclave was kept constant at 200×10^5 Pa by pumping in additional gas. The resulting volume weighted particle size distribution is as follows: 100 g of solid Saquinavir in a container with two sinter plates was charged into an autoclave having a volume of 6 l. The autoclave was kept at a temperature of 40° C. with a water bath. Then the autoclave was filled with gas up to a pressure of 200×10^5 Pa and equilibrated for 90 min. The autoclave was connected to a second autoclave via a heated high pressure line, kept at 40° C. This second autoclave has a volume of 4 l. The dissolved Saquinavir was sprayed into this second autoclave. Thereby the pressure of the first autoclave was kept constant at 200×10^5 Pa by pumping in additional gas. The resulting volume weighted particle size distribution is as follows: […]

[5] = Solubility / miscibility of β-carotene in dimethyl ether; assay type: physicochemical
Protocol: It has now been discovered that dimethyl ether is useful as a solvent for β-carotene in processes such as those described above where the material to be produced as a powder is dissolved in a solvent at high temperature and pressure, and then the pressure is reduced whereby the solubility of the dissolved material decreases to the point where it precipitates from the solution as a fine powder. […] From PCT Patent Publication WO 96/15133 it is already known that dimethyl ether is an excellent solvent at elevated temperature and pressure conditions. The solubility of β-carotene in liquid dimethyl ether is strongly temperature dependent. About 1.1 wt. % of β-carotene dissolve in liquid dimethyl ether (vapour pressure 4 bar) at 25° C. At 60° C. (vapour pressure 15 bar) already 2.7 wt. % dissolve. At higher pressures (up to 300 bar) the solubility is practically not increased in this temperature region.
Thus, a homogeneous solution of β-carotene and dimethyl ether exists at 105° C. and pressures above 140 bar.
250 g of solid trans-β-carotene were charged into an autoclave having a volume of 1 l. The autoclave was thermostatted electrically to a temperature of 105° C. 500 g of dimethyl ether (cosmetic grade) were pumped into the autoclave. Dissolution of the carotene took about 60 minutes, with shaking of the autoclave. The pressure was then 175×10^5 Pa. A sample was taken at both the top and bottom lids of the autoclave. The sample compositions were determined gravimetrically. Both samples gave a carotene content of 33 wt. % and a dimethyl ether content of 67 wt. %, i.e. a homogeneous phase of carotene and dimethyl ether was present in the autoclave.

[6] = carbon dioxide or dinitrogen monoxide, pressures up to 500 bar; cited from earlier work
[7] = 500 bar, cited from earlier work
[8] = cited from earlier work
[9] = Stability of β-carotene in liquid solutions with highly compressible gases; assay type: physicochemical; details: temperatures in the region of its melting point of 180° C.
Protocol: In analogy to the procedure described in WO 95/21688 it has been investigated whether β-carotene forms liquid solutions with the mentioned and other highly compressible substances. β-Carotene forms liquid solutions with the gases only at temperatures in the region of its melting point of 180° C.

Structure (SMILES): O=C(NCCN1CCOCC1)c1ccc(Cl)cc1 [Moclobemide]
- solubility (CO2) ([1]; 45° C./200×10^5 Pa): 0.35 % (g/V)
- solubility (CH3—O—CH3) ([2]; 45° C./200×10^5 Pa): 3.7 % (g/V)

Structure (SMILES): CCOC(=O)/C(C)=C/C=C/C(C)=C/C=C/C=C(C)/C=C/C=C(C)/C=C/C1=C(C)CCCC1(C)C [apoester, Ethyl-8′-apo-β-carotene-8′oate]
- content of the apoester in the sprayed dimethyl ether solution (gravimetric) ([3]; 67° C., 150×10^5 Pa, equilibrated 30 minutes): 10 wt %
- particle size ([3]; Example 6, sprayed from dimethyl ether, 67° C., 150×10^5 Pa, nozzle 0.2 mm): 9 μm
- mean particle size ([3]; Example 10, powder with gelatin/sucrose matrix, starch catch process): 0.23 μm

Structure (SMILES): CC1=C(/C=C/C(C)=C/C=C/C(C)=C\C(=O)O)C(C)(C)CCC1 [Isotretionin]
- solubility (CO2) ([1]; 45° C./200×10^5 Pa): 0.3 % (g/V)
- solubility (CH3—O—CH3) ([2]; 45° C./200×10^5 Pa): 6.0 % (g/V)

Structure (SMILES): CC(C)(C)NC(=O)[C@@H]1C[C@@H]2CCCC[C@@H]2CN1C[C@@H](O)[C@H](Cc1ccccc1)NC(=O)[C@H](CC(N)=O)NC(=O)c1ccc2ccccc2n1 [Saquinavir]
- particle size, 10% of the particles (volume weighted) [4]: ≦0.4 μm
- particle size, 50% of the particles (volume weighted) [4]: ≦0.9 μm
- particle size, 90% of the particles (volume weighted) [4]: ≦1.8 μm
- solubility (CO2) ([1]; 45° C./200×10^5 Pa): <0.1 % (g/V)
- solubility (CH3—O—CH3) ([2]; 25° C./100×10^5 Pa): >10 % (g/V)

Structure (SMILES): COc1ccccc1Oc1c(NS(=O)(=O)c2ccc(C(C)(C)C)cc2)nc(-c2ncccn2)nc1OCCO [Bosentan]
- solubility (CO2) ([1]; 45° C./200×10^5 Pa): <0.1 % (g/V)
- solubility (CH3—O—CH3) ([2]; 45° C./200×10^5 Pa): 9.0 % (g/V)

Structure (SMILES): CC1=C(/C=C/C(C)=C/C=C/C(C)=C/C=C/C=C(C)/C=C/C=C(C)/C=C/C2=C(C)CCCC2(C)C)C(C)(C)CCC1 [β-carotene]
- solubility in liquid dimethyl ether ([5]; 25° C., vapour pressure 4 bar): About 1.1 wt. %
- solubility in liquid dimethyl ether ([5]; 60° C., vapour pressure 15 bar): 2.7 wt. %
- carotene content of the homogeneous dimethyl ether phase (gravimetric) ([5]; 105° C., 175×10^5 Pa, Example 1): 33 wt. %
- miscibility with dimethyl ether ([5]; 105° C., pressures above 140 bar): miscible without limitation in any ratio
- β-carotene concentration in supercritical gases [6]: 0.01 wt. %
- solubility in carbon dioxide ([7]; 35° C.): 0.00049 wt. %
- solubility in carbon dioxide ([7]; 55° C.): 0.0016 wt. %
- dissolution in liquid sulphur dioxide ([8]; 15° C.): 0.59 wt. %
- highest concentration in supercritical fluids (ethylene) ([8]; ethylene, 55° C., 500 bar): 0.035 wt. %
- concentration in the solvents which are liquid at room temperature ([8]; liquid solvents except CS2): below 1 wt. %
- solubility in CS2 ([8]; room temperature): 3.5 wt. %
- stability in liquid solution with the gases [9]: isomerizes or decomposes after a very short time

Structure (SMILES): CCCCCCCCCCC[C@@H](C[C@@H]1OC(=O)[C@H]1CCCCCC)OC(=O)[C@H](CC(C)C)NC=O [Orlistat]
- particle size, 10% of the particles (volume weighted) [4]: ≦0.40 μm
- particle size, 50% of the particles (volume weighted) [4]: ≦1.02 μm
- particle size, 90% of the particles (volume weighted) [4]: ≦2.43 μm
- solubility (CO2) ([1]; 30° C./100×10^5 Pa): 0.6 % (g/V)
- solubility (CH3—O—CH3) ([2]; 20° C./4.5×10^5 Pa): 17.8 % (g/V)
